Consider two compounds from article PMC2610240 (Drug metabolism and disposition: the biological fate of …, 2008).

Where “and” joins values, the source holds several entries; their conditions need not be identical. Identical values can stand only once.

Data set [1] has as its system b5R activity in rat liver microsomes. Conditions: concentrations up to 10 mM, ref Lee and Kariya, 1986; cited from earlier work.
Data set [2] relates to CPR activity in rat liver microsomes. Conditions: concentrations up to 10 mM, ref Lee and Kariya, 1986; cited from earlier work.
The target of data set [3] is T1, purified recombinant human CPR (NADPH-cytochrome P450 reductase) (Homo sapiens, UniProt P16435).
T1 sequence (P16435 1-677): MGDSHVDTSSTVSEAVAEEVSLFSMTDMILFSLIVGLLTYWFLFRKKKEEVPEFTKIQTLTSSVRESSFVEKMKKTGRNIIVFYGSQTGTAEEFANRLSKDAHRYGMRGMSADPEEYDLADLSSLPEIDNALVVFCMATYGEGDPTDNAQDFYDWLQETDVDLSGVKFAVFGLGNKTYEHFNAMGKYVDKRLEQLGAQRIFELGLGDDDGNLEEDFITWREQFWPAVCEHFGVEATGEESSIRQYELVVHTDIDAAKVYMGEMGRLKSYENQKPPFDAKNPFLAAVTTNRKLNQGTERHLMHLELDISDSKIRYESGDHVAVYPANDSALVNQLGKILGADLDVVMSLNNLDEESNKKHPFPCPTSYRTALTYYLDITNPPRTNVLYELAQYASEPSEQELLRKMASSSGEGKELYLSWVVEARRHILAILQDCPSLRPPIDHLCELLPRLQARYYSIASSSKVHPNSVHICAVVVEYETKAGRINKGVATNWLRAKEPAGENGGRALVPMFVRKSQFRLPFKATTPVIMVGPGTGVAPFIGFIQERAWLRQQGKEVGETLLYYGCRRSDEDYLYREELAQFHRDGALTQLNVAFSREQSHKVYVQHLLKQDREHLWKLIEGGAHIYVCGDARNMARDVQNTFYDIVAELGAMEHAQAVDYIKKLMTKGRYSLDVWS
As to the kind of experiment: Inhibition of recombinant CPR activity. Conditions: recombinant enzyme.

For data set [4], the target named is T2, CPR activity in human liver microsomes (Homo sapiens, UniProt P16435).
T2 sequence (P16435 1-677): T1 sequence (P16435 1-677)
As to the kind of experiment: Inhibition of CPR activity in HLMs.

Data set [5] concerns the target T3, b5R activity in human liver microsomes (Homo sapiens, UniProt P00387).
T3 sequence (P00387 1-301): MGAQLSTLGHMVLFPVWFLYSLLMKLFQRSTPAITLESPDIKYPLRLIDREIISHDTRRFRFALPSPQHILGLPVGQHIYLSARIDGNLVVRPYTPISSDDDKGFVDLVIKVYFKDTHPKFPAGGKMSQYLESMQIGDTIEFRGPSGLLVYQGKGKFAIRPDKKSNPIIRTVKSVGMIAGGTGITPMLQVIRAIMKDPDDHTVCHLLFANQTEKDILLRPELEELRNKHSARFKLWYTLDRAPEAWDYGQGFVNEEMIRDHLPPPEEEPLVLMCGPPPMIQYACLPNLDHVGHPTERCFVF
As to the kind of experiment: Inhibition of b5R activity in HLMs. It counts as biochemical.

The target in data set [6] is T4, purified recombinant human b5R (NADH b5 reductase) (Homo sapiens, UniProt P00387).
T4 sequence (P00387 1-301): T3 sequence (P00387 1-301)
In words: Inhibition of recombinant b5R activity. Type of data set: biochemical.

The target of data set [7] is T1, purified recombinant human CPR (NADPH-cytochrome P450 reductase). As to the kind of experiment: biochemical.

Regarding `CCCc1cc(=O)[nH]c(=S)[nH]1` [PTU, 6-propyl-2-thiouracil], the “effect on b5R activity” value in data set [1] was “selectively inhibit b5R activity”. The “effect on CPR activity” value in data set [2] is given as “without reducing CPR activity”. The “decrease in CPR activity” value in data set [3] (4 mM PTU) was determined as 51%. Moreover, the “reduction in CPR activity” value in data set [4] (4 mM PTU (highest concentration)) was 16% and < 20%. In data set [5] (4 mM PTU (highest concentration), 15 min pre-incubation at 25°C), the “reduction in b5R activity” value is given as 41%. Besides, the “maximal inhibition of b5R activity” value in data set [5] (over 1 to 4 mM PTU) is “about 40%”. Moreover, the “decrease in b5R activity” value in data set [6] (recombinant enzyme, 4 mM PTU, 15 min pre-incubation at 25°C) was found to be 78%.
On to `O=C(O)CCCCC1CCSS1` (stereo not drawn) [α-lipoic acid], for which the “reduction in CPR activity” value in data set [3] (2 mM α-lipoic acid, maximal effect) was determined as 92%; in data set [4] (2 mM α-lipoic acid) it was 76%. Also, the figures for the IC50 in data set [7] and in data set [6] were 140 ± 20 µM and 50 ± 50 µM, respectively. The “reduction in b5R activity” value in data set [5] (2 mM α-lipoic acid) is 54%; in data set [6] (recombinant enzyme, 2 mM α-lipoic acid, maximal effect), 84%.
